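Exposure lasted 48 hours, with cells grown in 96-well plates and compounds tested at five concentrations. At the GI50, growth is halved. Definition used: TGI = concentration required for complete inhibition of growth.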 Where a SMILES comes first, the peptide text is derived from it. [ ]: non-standard residue; d: D form. The star is where a group is joined. mTyr = N[CH](Cc1cccc(O)c1)C(=O)O; Cbz = O=C(OCc1ccccc1)*; OBn = c1ccc(CO*)cc1

13 compounds from PubChem BioAssay (NCI) can be followed below.

Assay in all cases: NCI-60 cell line screen, 48 h
Assay [1] deals with HCT-116 colon.
For assay [2], the system named is HCT-15 colon.
The test system of assay [3] is HS 578T breast.
The subject of assay [4] is MCF7 breast.
In assay [5] the test system is NCI-H226 lung.
Assay [6] relates to OVCAR-4 ovarian.
In assay [7] the test system is SF-268 CNS.
Assay [8] deals with SK-MEL-28 melanoma.
For assay [9], the system named is TK-10 renal.
Assay [10] deals with UACC-62 melanoma.

In the case of `O=[As](O)(O)c1ccc(N=Nc2ccc(O)cc2)cc1`, the TGI in assay [1], in [2], in assay [3], in assay [4], in [5] and in assay [6] was over 100 µM in each case. Besides, the TGI in assay [7], in assay [8], in assay [9] and in assay [10] was over 100 µM in each case.
On to `COC(=O)C(Cc1cccc(O)c1)NC(=O)C(CC(=O)OCc1ccccc1)NC(=O)OCc1ccccc1` (stereo not given) (Cbz-Asp(OBn)-[mTyr]-OMe; configuration not given here), for which the TGI in assay [1], in assay [2], in assay [3], in [4], in [5] and in [8] was over 100 µM each time. Besides, the TGI in [9] and in assay [10] was over 100 µM each time.
Take `CCOc1cc(NC(C)=O)ccc1C(=O)NN1C(=O)C(Cl)C1c1ccco1` (stereo not given): the TGI was 49.3 µM in assay [1]; 46.6 µM in assay [2]; 65.5 µM in [3]; 26.8 µM in [4]; over 100 µM in [5]; 33.3 µM in assay [6]. In addition, the TGI stood at 35.1 µM in [7], 63.5 µM in assay [8], 31.3 µM in assay [9] and 25.6 µM in assay [10].
For the compound `COc1ccc(N=C2C(=Nc3ccc(OC)cc3)N(c3ccccc3)C(=S)N2N=C=C2Sc3ccccc3N2C)cc1`, the TGI in assay [1], in assay [2], in [3], in [4], in assay [5] and in assay [7] was over 100 µM in each case. For the same compound, the TGI in assay [8], in assay [9] and in [10] was over 100 µM each time.
As to `CCOP(=O)(OCC)C(C)(CC)NC` (stereo not given), the TGI in [1], in [2], in [3], in assay [4], in assay [5] and in assay [6] was over 100 µM throughout. Besides, the TGI in [7], in assay [8], in assay [9] and in assay [10] was over 100 µM throughout.
Turning to `FC(F)(F)c1ccc2nc(Sc3ccccn3)cnc2c1`, the TGI in assay [1] was over 100 µM; in assay [2], over 100 µM; in assay [3] it was over 100 µM; in assay [4], over 100 µM; in assay [5] it was 60.2 µM; in [6], over 100 µM. The TGI is over 100 µM in assay [7], over 100 µM in assay [8], over 100 µM in assay [9] and 88.3 µM in assay [10].
With `CC1OC(O[C@H]2/C=C/C=C/C=C/C=C/C=C/C=C/C=C/[C@H](C)[C@@H](O)[C@@H](C)[C@H](C)OC(=O)CC(O)CC(O)CCC(O)C(O)CC(O)C[C@]3(O)C[C@H](O)C(C(=O)O)C(C2)O3)C(O)[C@H](N)C1O` (stereo not given in full), the GI50 in [1] is 1990 nM; in [2], 12 µM; in assay [3], 2390 nM; in [4] it was 5.02 µM; in [5] it was 2000 nM; in assay [7], 2060 nM. For the same compound, the GI50 was 2070 nM in assay [8], 2660 nM in [9] and 2780 nM in [10]. In addition, the TGI is 4.05 µM in assay [1]; 54 µM in [2]; 8.25 µM in assay [3]; 19.7 µM in assay [4]; 4.31 µM in assay [5]; 4.29 µM in assay [7]. Further, the TGI in [8] was found to be 3.98 µM; in assay [9], 5.31 µM; in [10], 7.62 µM.
Turning to `COc1cccc(N2C(=O)C3c4[nH]c5ccc(C)cc5c4C4CCC(C(C)(C)C)CC4C3C2=O)c1` (stereo not given), the TGI is 4.75 µM in assay [1]; over 10 µM in assay [2]; over 10 µM in assay [3]; over 10 µM in assay [4]; 8.78 µM in [5]; over 10 µM in assay [6]. Also, the TGI in assay [7], in [8], in assay [9] and in assay [10] was over 10 µM each time.
Consider `Cc1ccc(/C=C2\CCCC(CN3CCCCC3)C2=O)cc1` (stereo not given), for which the TGI in assay [1] came to 3.26 µM; in [2], 4.3 µM; in assay [3], 6.59 µM; in assay [4], 2.1 µM; in [5], 5.99 µM; in assay [6] it was 3.62 µM. Also, the TGI is 4.07 µM in assay [7], 3.22 µM in assay [8], 7.44 µM in assay [9] and 16.4 µM in assay [10].
On to `COc1ccc2oc(=N)c(C(=O)Nc3ccccn3)cc2c1`, for which the TGI in assay [1], in assay [2], in assay [3], in [4], in assay [5] and in assay [6] was over 100 µM throughout. The TGI in assay [7], in assay [8] and in assay [10] was over 100 µM in each case.
Consider `CC1OC(OC2C(OC(=O)[C@@H]3CC(C)(C)C[C@H]4C5=CC[C@@H]6[C@@]7(C)C[C@H](O)[C@H](OC8OC(CO)C(O)C(O)C8O)[C@@](C)(CO)[C@@H]7[C@H](O)C[C@@]6(C)[C@]5(C)CC[C@@]34C)OCC(O)C2O)C(O)C(O)C1O` (stereo not given in full), for which the TGI in assay [1], in assay [2], in [3], in [4], in assay [5] and in [6] was over 7.5 µM throughout. The TGI in assay [7], in assay [9] and in assay [10] was over 7.5 µM throughout.
Regarding `O=C1C[C@@H](c2ccccc2)O[C@@H](c2ccccc2)C1`, the TGI in assay [1], in assay [2], in assay [3], in assay [4], in [5] and in assay [6] was over 100 µM throughout. In addition, the TGI in assay [7] and in assay [10] was over 100 µM throughout.
For the compound `CCOC(=O)c1ccc(C(=O)C(C(C)=O)C(=O)OC(C)(C)C)[nH]1` (stereo not given), the TGI in assay [1], in [2], in [3], in assay [4], in [5] and in [6] was over 100 µM each time. The TGI in [7], in assay [8] and in [10] was over 100 µM each time.
